Test results from patent US4755522A, “Derivatives of N-[3-(2,4,6-trimethoxybenzoyl)propyl]piperidine, and their use in therapeutics” (priority 1986, dated 1988).
Values joined by “and” are separate entries in the source; they are usually repeats but may differ in a detail not shown here. Identical values can stand only once. “Also recorded” adds a separate entry of the source. Like-named read-outs stand apart in the source and are kept apart here.

How the values were obtained:
mice = format: in vivo; settings: 260 mg/kg I.P. (footnote *)
cardio-vascular system = test: Action on the cardio-vascular system in the anaesthetized dog; format: in vivo
Description: (b) Action on the cardio-vascular system (in the dog).
(§1) 3 dogs (average weight, 12 kg) anaesthetized with nembutal, receive the compound by intra-duodenal route at successive doses of 0.1-0.5-2.5-10 and 20 mg/kg.
The arterial pressure, the cardiac rate, the femoral arterial flow, the vertebral arterial flow, the rectal and skin temperatures are all measured. The coloration of the skin is observed.
(§2) 3 dogs (average weight, 14 kg) anaesthetized with nembutal, received the CRL 41,390 by intra-duodenal route, at successive doses of 0.1-0.5-1-2.5-5-10-20 mg/kg, then a supplementary dose of 10 mg/kg I.V.
The arterial pressure, the cardiac frequency, the femoral arterial flow, the vertebral arterial flow, the rectal and cutaneous temperatures, were measured. The coloration of the skin was observed.

isoprenaline = test: Effects of isoprenaline on arterial pressure and cardiac rate after the compound (dog); format: in vivo
Description: as §2

noradrenaline = test: Hypertension with noradrenaline after the compound (dog); format: in vivo
Description: as §1, §2
Hypertension to noradrenaline is not modified: at 2 mcg/kg of noradrenaline, the systolic arterial pressure passes, after administration of the product, from 160 to 290 mmHg/161 to 289 mmHg in the control.

ectopic heart-beats = test: Ectopic heart-beats in dogs with coronary artery ligature a few weeks earlier; format: in vivo, dog; settings: I.D.; for minimal effective dose: Canis lupus familiaris, intraduodenal, read-out: dose re-establishing a normal rhythm
Description: as §1
Two of these three dogs having undergone a ligature of a coronary artery a few weeks earlier still presented numerous ectopic heart-beats.

[1] = system: arrhythmias caused by injection of adrenaline; test: Arrhythmias caused by adrenaline + petroleum ether (dog); format: in vivo; settings: 39.1 mg/kg I.D.
Description: In the third dog, arrhythmias were caused by injection of adrenaline (10 mcg/kg), preceded by an intra-trachealinjection of petroleum ether (0.1 ml/kg before and after administration of the 39.1 mg/kg (in cumulative doses) of the compound. On the E.C.G., the number of beats of sinusoidal origin and the number of ectopic beats per minute are counted which follow the injection of adrenaline. |Dose of compound | Number of beats in 1 minute |mg/kg I.D. ectopic sinusoidal

[2] = system: left descending coronary artery ligature; test: Dog with left descending coronary artery ligatured 24 hours earlier, I.V.; format: in vivo
Description: In a dog of which the left descending coronary artery had been ligatured 24 hours earlier, the compound was administered by intravenous route at increasing doses: 0.5-1-2.5-5-10 mg/kg. every 30 minutes.

[3] = system: arrhythmias caused by adrenaline; test: Arrhythmias caused by adrenaline I.V., 4 days after coronary ligature (dog); format: in vivo
Description: 4 days after the ligature of the coronary, this same dog received injections I.V. of 5 mcg/kg of adrenaline which caused arrhythmias. The number of ectopic beats caused by adrenaline reduces starting from the dose of 5 mg/kg I.V. while the percentage of ectopic beats referred to the total cardiac frequency is 79% in comparison with 100% in the control and 46% 10 minutes after the dose of 10 mg/kg (64% after 40 minutes, 88% after 90 minutes).

awakened dog = test: Toxic effects in the awakened dog, I.V. cumulative; format: in vivo
[4] = system: ventricular fibrillation (V.F.) by inhalation of chloroform; test: Lawson's test in mice (ventricular fibrillation by inhalation of chloroform); format: in vivo
From the text: (c) Anti-arrhythmic action in the mouse. Research on the anti-arrhythmic activity by intraperitoneal route on Lawson's test in mice (ventricular fibrillation (V.F.) by inhalation of chloroform, all or nothing response) has given the following results (10 mice per dose).

[5] = system: arrhythmias with K-strophanthin; test: Arrhythmias with K-strophanthin in the guinea-pig; format: in vivo; settings: 10 mg/kg I.V.
Description: (§3) The compound was administered by intravenous route at a dose of 10 mg/kg to a series of 10 albino guinea-pigs of 380 to 495 g, anaesthetized with urethane.
(§4) 5 minutes later, they receive an I.V. perfusion of the product causing arrhythmia at a dosage of 0.09 mg/min. in a volume of 0.6 ml/min.
(§5) The compound is compared with quinidine at a dose of 5 mg/kg I>V> and with a series of controls.
(§6) Lots are drawn for the treatments.
A--Action on arrhythmias with K-strophanthin.

[6] = system: arrhythmias with aconitine; test: Arrhythmias with aconitine in the guinea-pig; format: in vivo
Description: as §3, §4, §5, §6
B--Action on arrhythmias with aconitine.

cardiac arrhythmias = test: Treatment of cardiac arrhythmias in man; format: in vivo; settings: capsules or tablets 200 mg, 3 to 4 per day
Description: The compound of example 1 in the form of capsules or tablets with doses of 200 mg, 3 to 4 per day, has given good results in the treatment of cardiac arrhythmias in man.

## COc1cc(OC)c(C(=O)CCCN2CCCC(CO)C2)c(OC)c1.Cl (stereo not shown) [CRL 41,391, N-[3-(2,4,6-trimethoxybenzoyl)propyl]-3-piperidinemethanol hydrochloride]
mice
  convulsions: convulsions
cardio-vascular system; 20 mg/kg I.D.
  effect on heart rate: slightly reduces the heart rate
cardio-vascular system; Canis lupus familiaris, intraduodenal, I.D., read-out: dose from which femoral flow increases
  minimal effective dose: 5 mg/kg
cardio-vascular system; I.D.
  effect on rectal and cutaneous temperatures: does not modify the rectal and cutaneous temperatures
  effect on vertebral flow: reduces the vertebral flow
cardio-vascular system; I.D., starting at 5 mg/kg
  effect on femoral flow: increases the femoral flow
cardio-vascular system; intra-duodenal, successive doses to 20 mg/kg, nembutal
  effect on the arterial pressure: no effect on the arterial pressure
isoprenaline; 39.1 mg/kg I.D. cumulative, control 120
  diastolic arterial pressure after the product, before isoprenaline: 107 mmHg
isoprenaline; 39.1 mg/kg I.D. cumulative, control 157
  cardiac rate after the product, before isoprenaline: 160 beats/minute
isoprenaline; 10 mcg/kg isoprenaline I.V., 39.1 mg/kg I.D. cumulative, control 37
  diastolic arterial pressure after the product, with isoprenaline: 36 mmHg
isoprenaline; 10 mcg/kg isoprenaline I.V., 39.1 mg/kg I.D. cumulative, control 83
  change of diastolic arterial pressure with isoprenaline: 71 mmHg
isoprenaline; 10 mcg/kg isoprenaline I.V., 39.1 mg/kg I.D. cumulative, control 273
  cardiac rate after the product, with isoprenaline: 255 beats/minute
isoprenaline; after accumulated dose 39.1 mg/kg I.D.
  effects of isoprenaline on arterial pressure and cardiac rate: very slightly reduced
noradrenaline; 39.1 mg/kg I.D. cumulative, control 153
  systolic pressure after the product, before noradrenaline: 149 mmHg
noradrenaline; 2 mcg/kg noradrenaline I.V., 39.1 mg/kg I.D. cumulative, control 271
  systolic pressure after the product, with noradrenaline: 256 mmHg
noradrenaline; after 39.1 mg/kg I.D. cumulative
  hypertension with noradrenaline: slightly reduced
Ectopic heart-beats; one dog
  minimal effective dose: 2.5 mg/kg
Ectopic heart-beats; the other dog
  minimal effective dose: 10 mg/kg
Ectopic heart-beats; two dogs
  normal rhythm: re-established a normal rhythm in these two dogs
[1]
  number of ectopic beats caused by adrenaline+petroleum ether: strongly reduces the number of ectopic beats
[1]; 35 at dose 0
  Number of beats in 1 minute, sinusoidal: 173
[1]; 163 at dose 0
  Number of beats in 1 minute, ectopic: 26
[2]; 2.5 mg/kg I.V.
  sinusoidal beats: ≥ 5%
[2]; 5 mg/kg I.V., 5 minutes after injection
  sinusoidal beats: 19%
[2]; 10 mg/kg I.V.
  vomitting: brief vomitting
[2]; 20 minutes after the injection
  sinusoidal beats: 41%
[2]; 40 minutes
  sinusoidal beats: 25%
[2]; 60 minutes
  sinusoidal beats: 15%
[2]; Canis lupus familiaris, iv, I.V., zero sinusoidal beats in the control, read-out: dose from which sinusoidal beats increase
  minimal effective dose: 2.5 mg/kg
[2]; after 10 mg/kg I.V.
  change of cardiac frequency: -25%
[2]; after 10 mg/kg I.V., from 231
  cardiac frequency: 174 beats/minute
[3]; 5 mg/kg I.V., control 100%
  ectopic beats referred to the total cardiac frequency: 79%
[3]; 10 mg/kg I.V., after 40 minutes
  ectopic beats referred to the total cardiac frequency: 64%
[3]; 10 mg/kg I.V., after 90 minutes
  ectopic beats referred to the total cardiac frequency: 88%
[3]; 10 minutes after 10 mg/kg I.V.
  ectopic beats referred to the total cardiac frequency: 46%
[3]; Canis lupus familiaris, iv, I.V., adrenaline 5 mcg/kg I.V., read-out: dose from which ectopic beats caused by adrenaline are reduced
  minimal effective dose: 5 mg/kg
Awakened dog; 70 mg/kg I.V. total
  nictitating membrane: released for 10 minutes
Awakened dog; I.V., 5 minutes after the injection, hydrochloride
  vomiting, cumulative dose: 40 mg/kg and 70 mg/kg
Awakened dog; I.V., total 70 mg/kg
  somnolence: a certain somnolence was observed
[4]; 5 mg/kg I.P.
  % of mice not presenting V.F.: 22%
[4]; 10 mg/kg I.P.
  % of mice not presenting V.F.: 50%
[4]; 20 mg/kg I.P.
  % of mice not presenting V.F.: 70%
[5]
  appearance of incidents in the E.C.G. due to K-strophanthin: significantly delays
  cardiac frequency: does not significantly modify the cardiac frequency
[6]; 10 mg/kg I.V.
  increase of cardiac frequency (average): 12 beats/minute
[6]; 10 mg/kg I.V. vs quinidine 5 mg/kg
  action on aconitine compared with quinidine: greater than that observed after pre-treatment with 5 mg/kg of quinidine
[6]; 10 mg/kg I.V., anaesthetized guinea-pig
  cardiac frequency (conclusion, K-strophanthin and aconitine): without modifying or with very moderate increase in the cardiac frequency
[6]; 10 mg/kg I.V., hydrochloride
  appearance of incidents in the E.C.G. due to aconitine: significantly retards; also recorded: significantly delays
Cardiac arrhythmias
  treatment of cardiac arrhythmias in man: good results
